Data on 4 compounds can be found in patent US9023789B2, “Amylin analogs and pharmaceutical compositions thereof” (Novo Nordisk A/S, priority 2012, dated 2015).

Like-named read-outs stand apart in the source and are kept apart here. Numbered stars: 1 amine (or outer) side, 2 acyl side, 3 side chain; on linkers, the order of the positions; unused ones are H or OH. Bridge positions count the residues as written; N and C are the ends. Side chains are listed from the residue outwards. Peptide text beside a SMILES is read from it. * marks the point of attachment. C20 diacid = O=C(O)CCCCCCCCCCCCCCCCCCC(=O)*; γGlu = O=C(O)[C@H](CCC(=O)[*:2])N[*:1]; AEEA = NCCOCCOCC(=O)O Some results are limits rather than exact numbers.

The nature of data set [1]: ASSAY (IV) determination of solubility. In kind it is physicochemical. The method, boiled down: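 Samples of polypeptide, prepared from a water stock at […] and diluted 1:1 into 100 mM buffers spanning pH 3.0 to 8.0, stood 18 hours at room temperature. Polypeptide concentration was then determined by UPLC following centrifugation.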
Data set [2] in a line: ASSAY (III) ThT fibrillation assay for physical stability. In kind it is physicochemical. An excerpt: Assay (III)—ThT Fibrillation Assays for the Assessment of Physical Stability of Protein Formulations Low physical stability of a polypeptide may lead to amyloid fibril formation, which is observed as well-ordered, thread-like macromolecular structures in the sample eventually resulting in gel formation. This has traditionally been measured by visual inspection of the sample. However, that kind of measurement is very subjective and depending on the observer. Therefore, the application of a small molecule indicator probe is much more advantageous. Thioflavin T (ThT) is such a probe and has a distinct fluorescence signature when binding to fibrils [Naiki et al. (1989) Anal. […] LeVine (1999) Methods. Enzymol. […], 274-284]. The time course for fibril formation can be described by a sigmoidal curve with the following expression [Nielsen et al. (2001) Biochemistry 40, 6036-6046]; […] Here, F is the ThT fluorescence at the time t. The constant t0 is the time needed to reach 50% of maximum fluorescence. […] Few of those intermediates nucleate to form a template onto which further intermediates may assembly and the fibrillation proceeds. The lag-time corresponds to the interval in which the critical mass of nucleus is built up and the apparent rate constant is the rate with which the fibril itself is formed. Sample Preparation Samples were prepared freshly before each assay. Each sample composition is described in each example. The pH of the sample was adjusted to the desired value using appropriate amounts of concentrated NaOH and HClO4 or HCl. Thioflavin T was added to the samples from a stock solution in H2O to a final concentration of 1 μM. Sample aliquots of 200 μl were placed in a 96 well microtiter plate (Packard OptiPlate™96, white polystyrene). Usually, four or eight replica of each sample (corresponding to one test condition) were placed in one column of wells. The plate was sealed with Scotch Pad (Qiagen). Incubation and Fluorescence Measurement Incubation at given temperature, shaking and measurement of the ThT fluorescence emission were done in a Fluoroskan Ascent FL fluorescence platereader or Varioskan platereader (Thermo Labsystems). The temperature was adjusted to 37° C. The orbital shaking was adjusted to 960 rpm with an amplitude of 1 mm in all the presented data. Fluorescence measurement was done using excitation through a 444 nm filter and measurement of emission through a 485 nm filter. Each run was initiated by incubating the plate at the assay temperature for 10 min. The plate was measured every 20 minutes for a desired period of time. Between each measurement, the plate was shaken and heated as described. Data Handling The measurement points were saved in Microsoft Excel format for further processing and curve drawing and fitting was performed using GraphPad Prism. The background emission from ThT in the absence of fibrils was negligible. The data points are typically a mean of four or eight samples and shown with standard deviation error bars. Only data obtained in the same experiment (i.e. samples on the same plate) are presented in the same graph ensuring a relative measure of fibrillation between experiments. The data set may be fitted to Eq. […] However, since full sigmodial curves in this case are not always achieved during the measurement time, the degree of fibrillation is expressed as ThT fluorescence tabulated as the mean of the samples and shown with the standard deviation at various time points. Measurement of Initial and Final Concentrations The polypeptide concentration in each of the tested formulations were measured both before application in the ThT fibrillation assay (“Initial”) and after completion of the ThT fibrillation (“After ThT assay”). Concentrations were determined by reverse HPLC methods using a pramlintide standard as a reference. Before measurement after completion 150 μl was collected from each of the replica and transferred to an Eppendorf tube. These were centrifuged at 30000 G for 40 mins. […]

Where [3] appears, read: bistrispropane buffer, pH 6.5, read-out: Solubility pH 6.5 Concentration.
Where [4] appears, read: bistrispropane buffer, pH 7.5, read-out: Solubility pH 7.5 Concentration.
[5] abbreviates: bistrispropane buffer, pH 6.0, read-out: Solubility pH 6.0 Concentration.
Setting [6] is: bistrispropane buffer, pH 7.0, read-out: Solubility pH 7.0 Concentration.
Setting [7] is: bistrispropane buffer, pH 8.0, read-out: Solubility pH 8.0 Concentration.
The mark [8] stands for this setting: glycylglycine buffer, pH 3.0, read-out: Solubility pH 3.0 Concentration.
[9] abbreviates: glycylglycine buffer, pH 4.0, read-out: Solubility pH 4.0 Concentration.
Setting [10] is: glycylglycine buffer, pH 5.0, read-out: Solubility pH 5.0 Concentration.

As to `CC[C@H](C)[C@H](NC(=O)[C@H](C)NC(=O)CNC(=O)[C@H](Cc1ccccc1)NC(=O)[C@H](CC(N)=O)NC(=O)[C@@H]1CCCN1C(=O)[C@H](CO)NC(=O)[C@H](CO)NC(=O)[C@H](Cc1c[nH]cn1)NC(=O)[C@H](CCCNC(=N)N)NC(=O)[C@H](CC(C)C)NC(=O)[C@H](Cc1ccccc1)NC(=O)[C@H](CC(=O)O)NC(=O)[C@H](C)NC(=O)[C@H](CC(C)C)NC(=O)[C@H](CCCNC(=N)N)NC(=O)[C@H](CCC(N)=O)NC(=O)[C@@H](NC(=O)[C@H](C)NC(=O)[C@@H]1CSSC[C@H](NC(=O)[C@H](CCCCN)NC(=O)CC[C@H](NC(=O)CCCCCCCCCCCCCCCCCCC(=O)O)C(=O)O)C(=O)N[C@@H](CC(N)=O)C(=O)N[C@@H]([C@@H](C)O)C(=O)N[C@@H](C)C(=O)N[C@@H]([C@@H](C)O)C(=O)N1)[C@@H](C)O)C(=O)N1CCC[C@H]1C(=O)N[C@@H](CO)C(=O)N[C@@H](CO)C(=O)N[C@H](C(=O)N[C@@H](CC(N)=O)C(=O)N[C@H](C(=O)NCC(=O)N[C@@H](CO)C(=O)N[C@@H](CC(N)=O)C(=O)N[C@H](C(=O)N1CCC[C@H]1C(N)=O)[C@@H](C)O)C(C)C)[C@@H](C)O` [Example 10] ({C20 diacid-γGlu}-KCNTATCATQRLADFLRHSSPNFGAIPSSTNVGSNTP-NH2; disulfide 2-7 (inferred)), the solubility at 18 h in data set [1] (setting [3]), in data set [1] (setting [4]), in data set [1] (setting [5]), in data set [1] (setting [6]), in data set [1] (setting [7]) and in data set [1] (setting [8]) was ≥ 200 µM throughout. Moreover, the solubility at 18 h in data set [1] (setting [9]) and in data set [1] (setting [10]) was ≥ 200 µM in each case. Also, the “ThT pH 4.0 lag time (h)” value in data set [2] was 45 h.

With `CC[C@H](C)[C@H](NC(=O)[C@H](C)NC(=O)CNC(=O)[C@H](Cc1ccccc1)NC(=O)[C@H](CC(N)=O)NC(=O)[C@@H]1CCCN1C(=O)[C@H](CO)NC(=O)[C@H](CO)NC(=O)[C@H](Cc1c[nH]cn1)NC(=O)[C@H](CCCNC(=N)N)NC(=O)[C@H](CC(C)C)NC(=O)[C@H](Cc1ccccc1)NC(=O)[C@H](CC(=O)O)NC(=O)[C@H](C)NC(=O)[C@H](CC(C)C)NC(=O)[C@H](CCCNC(=N)N)NC(=O)[C@H](CCC(N)=O)NC(=O)[C@@H](NC(=O)[C@H](C)NC(=O)[C@@H]1CSSC[C@H](NC(=O)[C@@H](N)CCCCNC(=O)CC[C@H](NC(=O)CCCCCCCCCCCCCCCCCCC(=O)O)C(=O)O)C(=O)N[C@@H](CC(N)=O)C(=O)N[C@@H]([C@@H](C)O)C(=O)N[C@@H](C)C(=O)N[C@@H]([C@@H](C)O)C(=O)N1)[C@@H](C)O)C(=O)N1CCC[C@H]1C(=O)N[C@@H](CO)C(=O)N[C@@H](CO)C(=O)N[C@H](C(=O)N[C@@H](CC(N)=O)C(=O)N[C@H](C(=O)NCC(=O)N1CCC[C@H]1C(=O)N[C@@H](CCC(=O)O)C(=O)N[C@H](C(=O)N[C@@H](Cc1ccc(O)cc1)C(N)=O)[C@@H](C)O)C(C)C)[C@@H](C)O` [Example 123] (H-K([γGlu-C20 diacid])CNTATCATQRLADFLRHSSPNFGAIPSSTNVGPETY-NH2; disulfide 2-7; N-terminus assumed), the solubility at 18 h in data set [1] (setting [3]), in data set [1] (setting [4]), in data set [1] (setting [5]), in data set [1] (setting [6]), in data set [1] (setting [7]) and in data set [1] (setting [8]) was ≥ 200 µM throughout. The solubility at 18 h in data set [1] (setting [9]) and in data set [1] (setting [10]) was ≥ 200 µM in each case. Also, the “ThT pH 4.0 lag time (h)” value in data set [2] is reported as 30 h.

For the compound `CC[C@H](C)[C@H](NC(=O)[C@H](C)NC(=O)CNC(=O)[C@H](Cc1ccccc1)NC(=O)[C@H](CC(N)=O)NC(=O)[C@@H]1CCCN1C(=O)[C@H](CO)NC(=O)[C@H](CO)NC(=O)[C@H](Cc1c[nH]cn1)NC(=O)[C@H](CCCNC(=N)N)NC(=O)[C@H](CC(C)C)NC(=O)[C@H](Cc1ccccc1)NC(=O)[C@H](CCC(=O)O)NC(=O)[C@H](C)NC(=O)[C@H](CC(C)C)NC(=O)[C@H](CCCNC(=N)N)NC(=O)[C@H](CCC(N)=O)NC(=O)[C@@H](NC(=O)[C@H](C)NC(=O)[C@@H]1CSSC[C@H](NC(=O)[C@H](CCCCN)NC(=O)COCCOCCNC(=O)COCCOCCNC(=O)CC[C@H](NC(=O)CCCCCCCCCCCCCCCCCCC(=O)O)C(=O)O)C(=O)N[C@@H](CC(N)=O)C(=O)N[C@@H]([C@@H](C)O)C(=O)N[C@@H](C)C(=O)N[C@@H]([C@@H](C)O)C(=O)N1)[C@@H](C)O)C(=O)N1CCC[C@H]1C(=O)N[C@@H](CO)C(=O)N[C@@H](CO)C(=O)N[C@H](C(=O)N[C@@H](CC(N)=O)C(=O)N[C@H](C(=O)NCC(=O)N[C@@H](CO)C(=O)N[C@@H](CC(N)=O)C(=O)N[C@H](C(=O)N1CCC[C@H]1C(N)=O)[C@@H](C)O)C(C)C)[C@@H](C)O` [Example 20] ({C20 diacid-γGlu-AEEA-AEEA}-KCNTATCATQRLAEFLRHSSPNFGAIPSSTNVGSNTP-NH2; disulfide 2-7), the solubility at 18 h in data set [1] (setting [3]), in data set [1] (setting [4]), in data set [1] (setting [5]), in data set [1] (setting [6]), in data set [1] (setting [7]) and in data set [1] (setting [8]) was ≥ 200 µM each time. The solubility at 18 h in data set [1] (setting [9]) and in data set [1] (setting [10]) was ≥ 200 µM in each case. For the same compound, the “ThT pH 4.0 lag time (h)” value in data set [2] is 45 h.

For `CC[C@H](C)[C@H](NC(=O)[C@H](C)NC(=O)CNC(=O)[C@H](Cc1ccccc1)NC(=O)[C@H](CC(N)=O)NC(=O)[C@@H]1CCCN1C(=O)[C@H](CO)NC(=O)[C@H](CO)NC(=O)[C@H](Cc1c[nH]cn1)NC(=O)[C@H](CCCNC(=N)N)NC(=O)[C@H](CC(C)C)NC(=O)[C@H](Cc1ccccc1)NC(=O)[C@H](CCC(=O)O)NC(=O)[C@H](C)NC(=O)[C@H](CC(C)C)NC(=O)[C@H](CCCNC(=N)N)NC(=O)[C@H](CCC(N)=O)NC(=O)[C@@H](NC(=O)[C@H](C)NC(=O)[C@@H]1CSSC[C@H](NC(=O)[C@@H](N)CCCCNC(=O)CC[C@H](NC(=O)CC[C@H](NC(=O)CCCCCCCCCCCCCCCCCCC(=O)O)C(=O)O)C(=O)O)C(=O)N[C@@H](CC(N)=O)C(=O)N[C@@H]([C@@H](C)O)C(=O)N[C@@H](C)C(=O)N[C@@H]([C@@H](C)O)C(=O)N1)[C@@H](C)O)C(=O)N1CCC[C@H]1C(=O)N[C@@H](CO)C(=O)N[C@@H](CO)C(=O)N[C@H](C(=O)N[C@@H](CC(N)=O)C(=O)N[C@H](C(=O)NCC(=O)N1CCC[C@H]1C(=O)N[C@@H](CC(N)=O)C(=O)N[C@H](C(=O)N[C@@H](Cc1ccccc1)C(N)=O)[C@@H](C)O)C(C)C)[C@@H](C)O` [Example 127] (H-K([γGlu-γGlu-C20 diacid])CNTATCATQRLAEFLRHSSPNFGAIPSSTNVGPNTF-NH2; disulfide 2-7 (inferred)), in data set [2], the “ThT pH 4.0 lag time (h)” value is on record as 25 h.
